Experimental data published in patent US20080194585A1, “Fungicidal Pyrazine Derivatives” (priority 2005, published 2008).
Marks after values point to notes of the source that are not given here.

Experiments:
Plasmopara viticola = test: Test D: grape downy mildew, spray after inoculation of grape seedlings; format: in vivo
Text: Upon removal, disease ratings were made. […] A dash (-) indicates no test results.

Phytophthora infestans = test: whole plant or invertebrate; format: in vivo
fusarium graminearium = test: Test I: wheat head scab, preventive spray on wheat seedlings
Description: (the causal agent of wheat head scab) and incubated in a saturated atmosphere at 20° C. for 72 h, and then moved to a growth chamber at 22° C. for 5 days, after which disease ratings were made.

[1] = test system: Puccinia recondita f. sp. tritici; test: Test K: wheat leaf rust, preventive spray on wheat seedlings
Botrytis cinerea = test: Test E: tomato botrytis, preventive spray on tomato seedlings
Septoria nodorum = test: Test H: wheat glum blotch, preventive spray on wheat seedlings
Description: (the causal agent of wheat glum blotch) and incubated in a saturated atmosphere at 20° C. for 48 h, and then moved to a growth chamber at 22° C. for 5 days, after which disease ratings were made.

[2] = test system: Erysiphe graminis f. sp. tritici; test: Test L: wheat powdery mildew, preventive spray on wheat seedlings
Pythium aphanidermatum = test: Test A: bluegrass pythium blight, preventive spray on bluegrass seedlings; conditions: for Test A disease control rating: 200 ppm
Rhizoctonia oryzae = test: Test G: turf brown patch, preventive spray on creeping bent grass seedlings
Description: (the causal agent of turf brown patch) and incubated in a saturated atmosphere at 27° C. for 24 h, and then moved to a growth chamber at 27° C. for 5 days, after which disease ratings were made.

[3] = test system: Colletotrichum orbiculare; test: Test B: cucumber Colletotrichum anthracnose, preventive spray on cucumber seedlings
Septoria tritici = test: Test J: wheat leaf blotch, preventive spray on wheat seedlings; format: in vivo; conditions: 40 ppm (marked *); 100 = 100% disease control, 0 = no control
Text: A dash (-) indicates no test results.

[4] = 200 ppm, 100 = 100% disease control, 0 = no control relative to controls
[5] = 100 = 100% disease control, 0 = no control relative to controls
[6] = 40 ppm (marked *), 100 = 100% disease control, 0 = no control

| Structure (SMILES) | Test D disease control rating (Plasmopara viticola; [4]) [%] | Test F disease control rating (Phytophthora infestans; [4]) [%] | Test I disease control rating (fusarium graminearium; [4]) [%] | Test A disease control rating (Pythium aphanidermatum; [5]) [%] | Test G disease control rating (Rhizoctonia oryzae; [4]) [%] | Test D disease control rating (Plasmopara viticola; [6]) | Test J disease control rating (Septoria tritici) | Test F disease control rating (Phytophthora infestans; [6]) | Test I disease control rating (fusarium graminearium; [6]) | Test E disease control rating (Botrytis cinerea; [6]) | Test H disease control rating (Septoria nodorum; [6]) | Test L disease control rating [2, 6] | Test G disease control rating (Rhizoctonia oryzae; [6]) | Test B disease control rating [3, 6] | other results |
| --- | --- | --- | --- | --- | --- | --- | --- | --- | --- | --- | --- | --- | --- | --- | --- |
| CC(C)=Nn1c(-c2c(F)cccc2F)c(Cl)nc(-n2cccn2)c1=O [Compound 392, 5-Chloro-6-(2,6-difluorophenyl)-1-[(1-methylethylidene)amino]-3-(1H-pyrazol-1-yl)-2(1H)-pyrazinone] | – | – | – | – | – | – | – | – | – | – | – | – | – | – | pest or weed control at 200 ppm (Plasmopara viticola; Plasmopara viticola, 168 h, 200 ppm, 100 = 100% disease control, 0 = no control relative to controls, read-out: Test D disease control rating): 0%; pest or weed control at 200 ppm (Phytophthora infestans; Phytophthora infestans, in Solanum lycopersicum, topical, 144 h, read-out: Test F disease control rating): 0%; pest or weed control at 200 ppm (fusarium graminearium; Fusarium, in Triticum aestivum, topical, 192 h, read-out: Test I disease control rating, 200 ppm, 100 = 100% disease control, 0 = no control relative to controls): 0%; pest or weed control at 200 ppm ([1]; Puccinia recondita, in Triticum aestivum, 192 h, read-out: Test K disease control rating): 99%; pest or weed control at 200 ppm (Botrytis cinerea; Botrytis cinerea, in Solanum lycopersicum, topical, 72 h, read-out: Test E disease control rating): 99%; pest or weed control at 200 ppm (Septoria nodorum; Parastagonospora nodorum, in Triticum aestivum, topical, 168 h, read-out: Test H disease control rating, 200 ppm, 100 = 100% disease control, 0 = no control relative to controls): 78%; pest or weed control at 200 ppm ([2]; Blumeria graminis, in Triticum aestivum, 168 h, read-out: Test L disease control rating, 200 ppm, 100 = 100% disease control, 0 = no control relative to controls): 59%; pest or weed control at 200 ppm (Pythium aphanidermatum; Pythium aphanidermatum, 120 h, read-out: Test A disease control rating): 0%; pest or weed control at 200 ppm (Rhizoctonia oryzae; Waitea circinata, in Agrostis stolonifera, topical, 144 h, read-out: Test G disease control rating, 200 ppm, 100 = 100% disease control, 0 = no control relative to controls): 69%; pest or weed control at 200 ppm ([3]; Colletotrichum orbiculare, in Cucumis sativus, 144 h, read-out: Test B disease control rating, 200 ppm, 100 = 100% disease control, 0 = no control relative to controls): 0% |
| CC(C)Cn1c(-c2c(F)cccc2F)c(Cl)nc(N2CCC=N2)c1=O [compound 4] | – | – | – | – | – | – | – | – | – | – | – | – | – | – | Test D disease control rating (Plasmopara viticola; 200 ppm): 12%; Test F disease control rating (Phytophthora infestans; 200 ppm): 0%; Test I disease control rating (fusarium graminearium; 200 ppm): 0%; Test K disease control rating ([1]; 200 ppm): 98%; Test E disease control rating (Botrytis cinerea; 200 ppm): 96%; Test H disease control rating (Septoria nodorum; 200 ppm): 99%; Test L disease control rating ([2]; 200 ppm): 96%; Test A disease control rating (Pythium aphanidermatum): 0%; Test G disease control rating (Rhizoctonia oryzae; 200 ppm): 99%; Test B disease control rating ([3]; 200 ppm): 0% |
| CCC(C)c1c(Cl)nc(-n2ccc(C)n2)c(=O)n1CC(C)C (centres unmarked) [compound 390] | 8 | 0 | 0 | 0 | 99 | – | – | – | – | – | – | – | – | – | Test K disease control rating [1, 4]: 100%; Test E disease control rating (Botrytis cinerea; [4]): 98%; Test H disease control rating (Septoria nodorum; [4]): 0%; Test L disease control rating [2, 4]: 100%; Test B disease control rating [3, 4]: 0% |
| CC(C)Cn1c(-c2c(F)cccc2F)c(I)nc(-c2ccccn2)c1=O [compound 401] | – | 0 | 0 | – | 85 | 0* % | 32* % | – | – | – | – | – | – | – | Test E disease control rating (Botrytis cinerea; [4]): 96%; Test H disease control rating (Septoria nodorum; [4]): 95%; Test L disease control rating [2, 4]: 98%; Test B disease control rating [3, 4]: 0% |
| O=c1c(-n2cccn2)nc(Cl)c(-c2c(F)cc(F)cc2F)n1-c1ccc(Cl)c(Cl)c1 [compound 402] | – | – | – | – | – | 0* % | 99* % | 0* % | 0* % | 99* % | 100* % | 57* % | 0* % | 98* % | – |
| Cc1ccn(-c2nc(Cl)c(-c3c(F)cc(F)cc3F)n(-c3ccc(Cl)c(Cl)c3)c2=O)n1 [compound 403] | – | – | – | – | 0 | 0* % | 98* % | 0* % | 0* % | 99* % | 100* % | 99* % | – | 99* % | – |
| O=c1c(-n2cccn2)nc(Cl)c(-c2c(F)cc(F)cc2F)n1-c1cc(Cl)cc(Cl)c1 [compound 404] | – | – | – | – | – | 0* % | 97* % | 0* % | 0* % | 98* % | 100* % | 0* % | 9* % | 0* % | – |
| Cc1ccn(-c2nc(Cl)c(-c3c(F)cc(F)cc3F)n(-c3cc(Cl)cc(Cl)c3)c2=O)n1 [compound 405] | – | – | – | – | – | 0* % | 99* % | 0* % | 0* % | 99* % | 98* % | 0* % | 17* % | 36* % | – |
| O=c1c(-n2cccn2)nc(Cl)c(-c2c(F)cc(F)cc2F)n1-c1ccc(F)c(Cl)c1 [compound 406] | – | – | – | – | – | 0* % | 100* % | 0* % | 0* % | 99* % | 99* % | 0* % | 50* % | 84* % | – |
| Cc1ccn(-c2nc(Cl)c(-c3c(F)cc(F)cc3F)n(-c3ccc(F)c(Cl)c3)c2=O)n1 [compound 407] | – | – | – | – | – | 0* % | 99* % | 0* % | 0* % | 99* % | 99* % | 0* % | 9* % | 32* % | – |
| O=c1c(-n2cccn2)nc(Cl)c(-c2c(F)cc(F)cc2F)n1-c1ccc(F)cc1 [compound 408] | – | – | – | – | – | 0* % | 99* % | 0* % | 0* % | 99* % | 100* % | 99* % | 91* % | 98* % | – |
| O=c1c(-n2cccn2)nc(Cl)c(-c2c(F)cc(F)cc2F)n1C1CCCCC1 [compound 418] | 47 | 0 | 0 | 0 | 99 | – | – | – | – | – | – | – | – | – | Test K disease control rating [1, 4]: 99%; Test E disease control rating (Botrytis cinerea; [4]): 99%; Test H disease control rating (Septoria nodorum; [4]): 100%; Test L disease control rating [2, 4]: 100%; Test B disease control rating [3, 4]: 99% |
| NC(=O)c1nc(Cl)c(-c2c(F)ccc(F)c2F)n(-c2ccccc2)c1=O [compound 419] | 32 | 95 | 73 | 100 | – | – | – | – | – | 97* % | 94* % | 0* % | 0* % | – | Test K disease control rating [1, 6]: 100* % |
| NC(=O)c1nc(Cl)c(-c2c(F)cc(F)cc2F)n(-c2ccccc2)c1=O [compound 420] | 31 | 100 | 60 | 98 | – | – | – | – | – | 94* % | 96* % | 41* % | 0* % | – | Test K disease control rating [1, 6]: 100* % |
| CCC(C)Cn1c(-c2ccc(OC)cc2F)c(Cl)nc(-n2cccn2)c1=O (centres unmarked) [compound 421] | 3 | 0 | 0 | 0 | 34 | – | – | – | – | – | – | – | – | – | Test K disease control rating [1, 4]: 100%; Test E disease control rating (Botrytis cinerea; [4]): 99%; Test H disease control rating (Septoria nodorum; [4]): 100%; Test L disease control rating [2, 4]: 94%; Test B disease control rating [3, 4]: 99% |
